In patent publication US20120214862A1, “MODULATION OF FACTOR 7 EXPRESSION” (ISIS Pharmaceuticals, Inc., priority 2009, published 2012):
In the oligonucleotide strings, read from the 5' end, every base follows the letter of its sugar. An asterisk marks phosphorothioate; unmarked linkages are phosphodiester. Other units and linkages are bracketed, terminal groups are in braces. A string of capitals states the bases alone. e = 2'-O-(2-methoxyethyl) (MOE); [5mC] = 5-methylcytosine; d = 2'-deoxy (DNA)

System: human Factor 7 mRNA
Experiment: Antisense inhibition of human Factor 7 mRNA in HepB3 cells, lipofectin, 50 nM, real-time RT-PCR
Format: cell-based
Conditions: Example 1; HepB3 cells, lipofectin, 50 nM, ~24 h, relative to untreated control cells
Procedure, shortened: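 Percent inhibition, untreated cells as reference: derived from RNA collected about 24 hours post-transfection of 4,000-cell wells, with the human RTS 2927 primer probe set and adjustment for total RNA content (RIBOGREEN®).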

Row | Substance | % Inhibition (human Factor 7 mRNA)
1 | 407928 (antisense e[5mC]*eT*eT*eG*eG*d[5mC]*dT*dG*dA*dA*dG*dG*dG*dA*dG*eG*eT*eA*eA*eG) [compound 407928] | 55%
2 | 407646 (antisense eG*eG*eT*eG*eA*dT*dG*d[5mC]*dT*dT*d[5mC]*dT*dG*dA*dA*eT*eT*eG*eT*e[5mC]) [compound 407646] | 81%
3 | 407667 (antisense eG*eT*eG*eG*e[5mC]*d[5mC]*dA*dT*dG*d[5mC]*d[5mC]*d[5mC]*dT*dG*dG*eG*eT*e[5mC]*eA*eG) [compound 407667] | 71%
4 | 407611 (antisense eT*e[5mC]*eT*e[5mC]*eA*d[5mC]*dA*dG*dT*dT*d[5mC]*d[5mC]*dG*dG*d[5mC]*e[5mC]*e[5mC]*eT*e[5mC]*eG) [compound 407611] | 82%
5 | 407888 (antisense e[5mC]*eG*eA*eA*eG*dA*d[5mC]*dT*dG*d[5mC]*dA*dG*d[5mC]*d[5mC]*dA*eG*eG*e[5mC]*eA*eG) [compound 407888] | 34%
6 | 407912 (antisense e[5mC]*e[5mC]*e[5mC]*eG*eG*dT*dA*dG*dT*dG*dG*dG*dT*dG*dG*e[5mC]*eA*eT*eG*eT) [compound 407912] | 46%
7 | 407634 (antisense eG*eT*eG*eA*e[5mC]*dT*dG*d[5mC]*dT*dG*d[5mC]*dA*dG*dG*d[5mC]*eA*eG*eT*e[5mC]*e[5mC]) [compound 407634] | 24%
8 | 407657 (antisense eG*eG*eG*eA*e[5mC]*dT*d[5mC]*dA*dG*d[5mC]*dA*dA*dG*dA*dG*eT*eG*e[5mC]*eA*eG) [compound 407657] | 26%
9 | 407610 (antisense eA*eG*eG*eG*eA*dG*dG*d[5mC]*dA*dG*dA*dA*dG*d[5mC]*dA*eG*eA*eT*eA*eT) [compound 407610] | 31%

Same assay, conditions: Example 4; HepB3 cells, lipofectin, 50 nM, ~24 h, relative to untreated control

Row | Substance | % Inhibition (human Factor 7 mRNA)
10 | 422189 (antisense e[5mC]*eG*e[5mC]*dG*dG*dA*dA*dG*dA*dA*dG*dG*dG*dA*d[5mC]*dG*dG*eA*eA*eG) [compound 422189] | 0%
11 | 422268 (antisense eA*eG*d[5mC]*dG*d[5mC]*dG*dG*dA*dA*dG*dA*dA*dG*dG*dG*eA*e[5mC]*eG*eG*eA) [compound 422268] | 63%

Same assay, conditions: HepB3 cells, lipofectin, 50 nM antisense oligonucleotide, approximately 24 hours, primer probe set RTS 2927, relative to untreated control

Row | Substance | % Inhibition of human Factor 7 mRNA levels
12 | 416519 (antisense eA*eA*eA*eT*eA*dT*dG*dG*dG*dA*d[5mC]*d[5mC]*d[5mC]*dA*dA*eA*eG*eT*eG*eG) [compound 416519] | 9%
13 | 416440 (antisense eG*eG*eA*e[5mC]*eT*dG*dG*dA*dG*d[5mC]*dT*dG*dG*dT*d[5mC]*e[5mC]*eT*eT*eG*e[5mC]) [compound 416440] | 44%
14 | 416562 (antisense eA*eA*eA*eG*e[5mC]*dA*dG*dA*dG*d[5mC]*d[5mC]*dA*dG*d[5mC]*dT*e[5mC]*eT*eG*eA*e[5mC]) [compound 416562] | 12%
15 | 416531 (antisense eA*eG*eA*eT*eG*dA*d[5mC]*d[5mC]*dA*dG*d[5mC]*dA*dG*dG*dA*eA*eG*e[5mC]*e[5mC]*eT) [compound 416531] | 19%
16 | 416483 (antisense eT*eG*eT*eG*eA*dG*dG*dG*dT*dT*d[5mC]*dA*dT*dT*dT*e[5mC]*eA*eG*eT*eG) [compound 416483] | 22%
17 | 416502 (antisense eG*eT*eT*e[5mC]*eT*dT*dT*dG*dA*dA*dA*dA*dA*dT*dA*eA*eT*e[5mC]*e[5mC]*e[5mC]) [compound 416502] | 22%
18 | 416473 (antisense e[5mC]*e[5mC]*e[5mC]*eT*eG*d[5mC]*d[5mC]*d[5mC]*d[5mC]*dT*d[5mC]*dT*dG*dT*d[5mC]*e[5mC]*eA*eG*e[5mC]*eG) [compound 416473] | 61%
19 | 416458 (antisense eG*eG*e[5mC]*eG*eG*dA*dG*d[5mC]*dA*dG*d[5mC]*dG*d[5mC]*dG*dA*eT*eG*eT*e[5mC]*eG) [compound 416458] | 29%

Same assay, conditions: HepB3 cells; gapmers (5-10-5, 3-14-3, 2-13-5 MOE) targeted to nucleobases 4868 to 4899 of SEQ ID NO: 1

Row | Substance | % Inhibition of human Factor 7 mRNA levels
20 | 422145 (antisense eG*e[5mC]*e[5mC]*e[5mC]*eG*dA*dG*dT*dT*d[5mC]*dT*dG*d[5mC]*dA*dG*eG*eA*eG*e[5mC]*eG) [compound 422145] | 57%
21 | 422146 (antisense eA*eG*e[5mC]*e[5mC]*e[5mC]*dG*dA*dG*dT*dT*d[5mC]*dT*dG*d[5mC]*dA*eG*eG*eA*eG*e[5mC]) [compound 422146] | 58%
22 | 422214 (antisense eT*eT*e[5mC]*dT*dG*d[5mC]*dA*dG*dG*dA*dG*d[5mC]*dG*dG*d[5mC]*d[5mC]*dT*eA*eA*eA) [compound 422214] | 60%

Same assay, conditions: HepB3 cells; gapmers targeted to nucleobases 11830 to 11869 of SEQ ID NO: 1 (Table 9)

Row | Substance | % Inhibition of human Factor 7 mRNA levels
23 | 422167 (antisense eG*eA*eG*dG*dA*dG*dA*d[5mC]*dA*dA*dT*dG*dG*dT*d[5mC]*dA*dG*eG*eG*e[5mC]) [compound 422167] | 53%
24 | 422251 (antisense eG*e[5mC]*dT*dG*dG*d[5mC]*dT*dG*dA*dG*dG*dA*dG*dA*d[5mC]*eA*eA*eT*eG*eG) [compound 422251] | 36%
25 | 422097 (antisense eG*eA*eG*eA*e[5mC]*dA*dA*dT*dG*dG*dT*d[5mC]*dA*dG*dG*eG*e[5mC]*eT*eG*eG) [compound 422097] | 59%

Same assay, conditions: HepB3 cells; gapmers targeted to nucleobases 13760 to 13789 of SEQ ID NO: 1 (Table 10)

Row | Substance | % Inhibition of human Factor 7 mRNA levels
26 | 422258 (antisense eG*e[5mC]*d[5mC]*dA*d[5mC]*d[5mC]*d[5mC]*dG*d[5mC]*d[5mC]*dG*dG*d[5mC]*dT*d[5mC]*eT*eG*e[5mC]*eT*e[5mC]) [compound 422258] | 66%
27 | 422259 (antisense e[5mC]*eG*d[5mC]*d[5mC]*dA*d[5mC]*d[5mC]*d[5mC]*dG*d[5mC]*d[5mC]*dG*dG*d[5mC]*dT*e[5mC]*eT*eG*e[5mC]*eT) [compound 422259] | 61%
28 | 422180 (antisense e[5mC]*e[5mC]*eA*d[5mC]*d[5mC]*d[5mC]*dG*d[5mC]*d[5mC]*dG*dG*d[5mC]*dT*d[5mC]*dT*dG*d[5mC]*eT*e[5mC]*eA) [compound 422180] | 54%
29 | 422262 (antisense e[5mC]*eT*dG*d[5mC]*dG*d[5mC]*d[5mC]*dA*d[5mC]*d[5mC]*d[5mC]*dG*d[5mC]*d[5mC]*dG*eG*e[5mC]*eT*e[5mC]*eT) [compound 422262] | 0%

Same assay, conditions: HepB3 cells; gapmers targeted to nucleobases 14707 to 14732 of SEQ ID NO: 1 (Table 11)

Row | Substance | % Inhibition of human Factor 7 mRNA levels
30 | 422278 (antisense eG*e[5mC]*d[5mC]*dT*dG*dA*dG*dG*d[5mC]*d[5mC]*dA*dG*d[5mC]*dA*dG*eA*eT*e[5mC]*eA*e[5mC]) [compound 422278] | 64%

Same assay, conditions: HepB3 cells; gapmers targeted to nucleobases 15188 to 15211 of SEQ ID NO: 1 (Table 13)

Row | Substance | % Inhibition of human Factor 7 mRNA levels
31 | 422151 (antisense eT*eG*e[5mC]*dA*dT*dG*dG*dT*dG*dA*dT*dG*d[5mC]*dT*dT*d[5mC]*dT*eG*eA*eA) [compound 422151] | 68%
